Experimental data as given in publication PMC6985722 (Antimicrobial Agents and Chemotherapy, 2020).
Values joined by “and” are separate entries in the source; they are usually repeats but may differ in a detail not shown here. Equal entries are not always repeated.

Test: RSV human challenge study: safety (adverse events, clinical and laboratory tests, ECG)
Type: in vivo
Conditions: for TEAE Abdominal discomfort / TEAE Abdominal distention / TEAE Abdominal pain (Table 4) / TEAE Abdominal pain (Table S4, listed apart from Abdominal pain lower) / TEAE Abdominal pain lower / TEAE Blood and lymphatic system disorders / TEAE Cardiac disorders / TEAE Catheter site erythema / TEAE Catheter site paraesthesia / TEAE Decreased appetite / TEAE Diarrhea / TEAE Dizziness / TEAE Epistaxis / TEAE Eye disorders / TEAE Eye pain / TEAE Food poisoning / TEAE Gastroenteritis / TEAE Gastrointestinal disorders / TEAE General disorders and administration site conditions / TEAE Headache / TEAE Hypoaesthesia / TEAE Infections and infestations / TEAE Injury, poisoning and procedural complications / TEAE Joint injury / TEAE Lip dry / TEAE Lymphadenopathy / TEAE Metabolism and nutrition disorders / TEAE Musculoskeletal and connective tissue disorders / TEAE Musculoskeletal pain / TEAE Myalgia / TEAE Myocarditis / TEAE Nausea / TEAE Nervous system disorders / TEAE Ocular hyperemia / TEAE Oropharyngeal pain / TEAE Pain in jaw / TEAE Pyrexia / TEAE Rash / TEAE Respiratory, thoracic and mediastinal disorders / TEAE Rhinitis / TEAE Skin abrasion / TEAE Skin and subcutaneous tissue disorders / TEAE Tension headache / TEAE Total / TEAE URTI / TEAE Vessel puncture site erythema / TEAE Viral URTI / TEAE Vomiting: safety analysis set
Text: Twice-daily collection of nasal wash samples allowed measurement of viral load via RT-qPCR and quantitative culture. RT-qPCR results were reported as PFUe/ml when the standard curve included in each assay contained a known infectious amount (PFU) of RSV, as described previously ([30]). Subjects reported the occurrence and severity of symptoms three times daily using a 10-item subject symptom diary card as previously reported ([12]) (see Supplemental Methods). Throughout the quarantine period, used tissues were collected and weighed daily, and total nasal mucus weight was recorded. PK assessments were based on venous blood samples. Safety assessments included measurement of vital signs, standard 12-lead ECG recordings, spirometry, a complete physical examination, and a respiratory-directed physical examination. AEs were monitored daily, coded according to the Medical Dictionary for Regulatory Activities Version 20.0, and graded according to the National Cancer Institute Common Terminology Criteria for Adverse Events Version 4.0 (see Supplemental Methods for further details).
The primary efficacy analysis population (the ITT-I analysis set) comprised all randomized subjects who received challenge virus and at least one dose of study drug and met the criterion for laboratory-confirmed RSV infection (presence of detectable RSV). Sensitivity analyses were based on a subset of the ITT-I population who had first detectable RSV infection prior to study drug administration (the ITT-A analysis set) and a fixed time period of 6.5 days (comprising data for all subjects for 6.5 days of evaluation after the first dose, regardless of the staggered commencement of dosing). The safety analysis set comprised all subjects who received challenge virus; the PK analysis set comprised all subjects who received the challenge virus and provided at least one postdose PK result. […]
unexpected, in the opinion of the investigator, were captured as AEs. Following the viral challenge, upper and lower respiratory tract symptoms identified by the directed physical examination were expected, presumed to represent virus infection consequent to viral challenge and not captured as an AE unless they met the criteria for an AE and were deemed clinically significant in the opinion of the investigator. AEs were monitored daily from screening (day –2) through to the follow -up visit (day 28) and coded to system organ class and preferred term according to the Medical Dictionary for Regulatory Activities Version
20.0. AEs were graded according to the National Cancer Institute Common Terminology Criteria for Adverse Events Version 4.0, andthe relationship to the investigational medical product or to challenge virus was recorded. An AE with an onset date/time after […]
that were considered by the investigator to be causally related to challenge virus can be included in the analysis of AEs.
Outcomes. Safety outcomes included the occurrence of AEs. PK outcomes included the maximum plasma concentration, the minimum plasma concentration, the time to maximum plasma concentration, and the area under the plasma concentration-time curve with a dosing interval, calculated by the linear trapezoidal rule.

## NCc1ccc2c(c1)nc(CN1C(=O)C3(CC3)c3ccc(F)cc31)n2CCCC(F)(F)F [RV521]
200 mg
  Grade 2 TEAEs, number of events: 2
  Subjects with gastrointestinal TEAEs: 32%
  Subjects with grade 2 TEAEs: 2 subjects
  Treatment-emergent AEs, number of events: 19
  TEAE Abdominal discomfort: 0 number of subjects (%)
  TEAE Abdominal distention: 0 number of subjects (%)
  TEAE Abdominal pain (Table 4): 2 (9) No. of subjects (%)
  TEAE Abdominal pain (Table S4, listed apart from Abdominal pain lower): 2 (9) number of subjects (%)
  TEAE Abdominal pain lower: 0 number of subjects (%)
  TEAE Blood and lymphatic system disorders: 0 number of subjects (%)
  TEAE Cardiac disorders: 0 number of subjects (%)
  TEAE Catheter site erythema: 0 number of subjects (%)
  TEAE Catheter site paraesthesia: 1 (5) number of subjects (%)
  TEAE Decreased appetite: 1 (5) number of subjects (%)
  TEAE Diarrhea: 3 (14) No. of subjects (%)
  TEAE Dizziness: 1 (5) number of subjects (%)
  TEAE Epistaxis: 1 (5) number of subjects (%)
  TEAE Eye disorders: 0 number of subjects (%)
  TEAE Eye pain: 0 number of subjects (%)
  TEAE Food poisoning: 1 (5) number of subjects (%)
  TEAE Gastroenteritis: 0 number of subjects (%)
  TEAE Gastrointestinal disorders: 7 (32) number of subjects (%)
  TEAE General disorders and administration site conditions: 1 (5) number of subjects (%)
  TEAE Headache: 0 No. of subjects (%)
  TEAE Hypoaesthesia: 1 (5) number of subjects (%)
  TEAE Infections and infestations: 3 (14) number of subjects (%)
  TEAE Injury, poisoning and procedural complications: 1 (5) number of subjects (%)
  TEAE Joint injury: 0 number of subjects (%)
  TEAE Lip dry: 0 number of subjects (%)
  TEAE Lymphadenopathy: 0 number of subjects (%)
  TEAE Metabolism and nutrition disorders: 1 (5) number of subjects (%)
  TEAE Musculoskeletal and connective tissue disorders: 0 number of subjects (%)
  TEAE Musculoskeletal pain: 0 number of subjects (%)
  TEAE Myalgia: 0 number of subjects (%)
  TEAE Myocarditis: 0 number of subjects (%)
  TEAE Nausea: 2 (9) No. of subjects (%)
  TEAE Nervous system disorders: 2 (9) number of subjects (%)
  TEAE Ocular hyperemia: 0 number of subjects (%)
  TEAE Oropharyngeal pain: 0 number of subjects (%)
  TEAE Pain in jaw: 0 number of subjects (%)
  TEAE Pyrexia: 0 number of subjects (%)
  TEAE Rash: 0 No. of subjects (%)
  TEAE Respiratory, thoracic and mediastinal disorders: 1 (5) number of subjects (%)
  TEAE Rhinitis: 1 (5) No. of subjects (%)
  TEAE Skin abrasion: 1 (5) number of subjects (%)
  TEAE Skin and subcutaneous tissue disorders: 1 (5) number of subjects (%)
  TEAE Tension headache: 0 number of subjects (%)
  TEAE Total: 11 (50) number of subjects (%) and 11 number of subjects (%)
  TEAE URTI: 2 (9) No. of subjects (%)
  TEAE Vessel puncture site erythema: 0 number of subjects (%)
  TEAE Viral URTI: 0 No. of subjects (%)
  TEAE Vomiting: 1 (5) No. of subjects (%)
200 mg and 350 mg
  Clinical or laboratory tests (vital signs, liver enzymes) vs placebo: No notable differences
  ECG findings: no clinically significant ECG findings
  TEAEs of grade ≥3: no TEAEs of grade ≥3
350 mg
  Grade 2 TEAEs, number of events: 4
  Subjects with gastrointestinal TEAEs: 59%
  Subjects with grade 2 TEAEs: 3 subjects
  TEAE Abdominal discomfort: 1 (5) number of subjects (%)
  TEAE Abdominal distention: 1 (5) number of subjects (%)
  TEAE Abdominal pain (Table 4): 5 (23) No. of subjects (%)
  TEAE Abdominal pain (Table S4, listed apart from Abdominal pain lower): 4 (18) number of subjects (%)
  TEAE Abdominal pain lower: 1 (5) number of subjects (%)
  TEAE Blood and lymphatic system disorders: 0 number of subjects (%)
  TEAE Cardiac disorders: 0 number of subjects (%)
  TEAE Catheter site erythema: 1 (5) number of subjects (%)
  TEAE Catheter site paraesthesia: 0 number of subjects (%)
  TEAE Decreased appetite: 0 number of subjects (%)
  TEAE Diarrhea: 9 (41) No. of subjects (%)
  TEAE Dizziness: 1 (5) number of subjects (%)
  TEAE Epistaxis: 0 number of subjects (%)
  TEAE Eye disorders: 0 number of subjects (%)
  TEAE Eye pain: 0 number of subjects (%)
  TEAE Food poisoning: 0 number of subjects (%)
  TEAE Gastroenteritis: 1 (5) number of subjects (%)
  TEAE Gastrointestinal disorders: 13 (59) number of subjects (%)
  TEAE General disorders and administration site conditions: 1 (5) number of subjects (%)
  TEAE Headache: 0 No. of subjects (%)
  TEAE Hypoaesthesia: 0 number of subjects (%)
  TEAE Infections and infestations: 5 (23) number of subjects (%)
  TEAE Injury, poisoning and procedural complications: 0 number of subjects (%)
  TEAE Joint injury: 0 number of subjects (%)
  TEAE Lip dry: 1 (5) number of subjects (%)
  TEAE Lymphadenopathy: 0 number of subjects (%)
  TEAE Metabolism and nutrition disorders: 0 number of subjects (%)
  TEAE Musculoskeletal and connective tissue disorders: 1 (5) number of subjects (%)
  TEAE Musculoskeletal pain: 0 number of subjects (%)
  TEAE Myalgia: 1 (5) number of subjects (%)
  TEAE Myocarditis: 0 number of subjects (%)
  TEAE Nausea: 12 (55) No. of subjects (%)
  TEAE Nervous system disorders: 1 (5) number of subjects (%)
  TEAE Ocular hyperemia: 0 number of subjects (%)
  TEAE Oropharyngeal pain: 0 number of subjects (%)
  TEAE Pain in jaw: 0 number of subjects (%)
  TEAE Pyrexia: 0 number of subjects (%)
  TEAE Rash: 0 No. of subjects (%)
  TEAE Respiratory, thoracic and mediastinal disorders: 0 number of subjects (%)
  TEAE Rhinitis: 2 (9) No. of subjects (%)
  TEAE Skin abrasion: 0 number of subjects (%)
  TEAE Skin and subcutaneous tissue disorders: 1 (5) number of subjects (%)
  TEAE Tension headache: 0 number of subjects (%)
  TEAE Total: 16 (73) number of subjects (%)
  TEAE URTI: 0 No. of subjects (%)
  TEAE Vessel puncture site erythema: 0 number of subjects (%)
  TEAE Viral URTI: 2 (9) No. of subjects (%)
  TEAE Vomiting: 2 (9) No. of subjects (%)
Any treatment group
  Treatment-related SAEs, deaths, or discontinuations due to AEs: No treatment-related serious adverse events (SAEs), deaths, or discontinuations due to AEs
